Results: ChEMBL document CHEMBL3822358 (J Med Chem, 2016)

tested on: not listed separately; test: cells; settings: Homo sapiens, KARPAS-299, 72 h
Description: Antiproliferative activity against human ALK-positive KARPAS299 cells assessed as reduction in cell viability measured after 72 hrs by CellTiter 96 aqueous one solution cell proliferation assay

Row | SMILES | IC50 | GI50
1 | COc1cc(N2CCC(N3CCN(C)CC3)CC2)c(C)cc1Nc1ncc(Cl)c(Nc2ccccc2P(C)(C)=O)n1 | – | 16 nM
2 | COc1cc(OCCCN2CCCC2)ccc1Nc1ncc(Cl)c(Nc2ccccc2P(C)(C)=O)n1 | 113 nM | –
3 | COc1cc(P(C)(C)=O)ccc1Nc1ncc(Cl)c(Nc2ccccc2P(C)(C)=O)n1 | 738 nM | –
4 | COc1cc(N2CCC(N3CCN(C)CC3)CC2)ccc1Nc1ncc(OC)c(Nc2ccccc2P(C)(C)=O)n1 | 429 nM | –
5 | COc1cc(P(C)(C)=O)ccc1Nc1ncc(Cl)c(Nc2ccccc2C(N)=O)n1 | 613 nM | –
6 | COc1cc(N2CCC(N3CCN(C)CC3)CC2)c(F)cc1Nc1ncc(Cl)c(Nc2ccccc2P(C)(C)=O)n1 | 162 nM | –
7 | COc1cc(OC2CCN(C)C2)ccc1Nc1ncc(Cl)c(Nc2ccccc2P(C)(C)=O)n1 (stereo not given) | 65.1 nM | –
8 | CCP(=O)(CC)c1ccccc1Nc1nc(Nc2ccc(N3CCC(N4CCN(C)CC4)CC3)cc2OC)ncc1Cl | 169 nM | –

The next lines start with results.

Row | IC50 | SMILES | GI50
9 | 58.9 nM | CCOc1cc(N2CCC(N3CCN(C)CC3)CC2)ccc1Nc1ncc(Cl)c(Nc2ccccc2P(C)(C)=O)n1 | –
10 | 46.9 nM | COc1cc(N2CCC(N3CCN(C)CC3)CC2)ccc1Nc1ncc(C)c(Nc2ccccc2P(C)(C)=O)n1 | –
11 | 101 nM | COc1cc(N2CCN(C3CCN(C)CC3)CC2)ccc1Nc1ncc(Cl)c(Nc2ccccc2P(C)(C)=O)n1 | –
12 | 105 nM | COc1cc(N2CCC(N3CCCN(C)CC3)CC2)ccc1Nc1ncc(Cl)c(Nc2ccccc2P(C)(C)=O)n1 | –
13 | 147 nM | COc1cc(N2CCC(N3CCN(C)CC3)CC2)ccc1Nc1ncc(F)c(Nc2ccccc2P(C)(C)=O)n1 | –

molecular target: Insulin-like growth factor 1 receptor (Homo sapiens, UniProt P08069); test: not given; settings: not given
Sequence (P08069 31-736 limits assumed): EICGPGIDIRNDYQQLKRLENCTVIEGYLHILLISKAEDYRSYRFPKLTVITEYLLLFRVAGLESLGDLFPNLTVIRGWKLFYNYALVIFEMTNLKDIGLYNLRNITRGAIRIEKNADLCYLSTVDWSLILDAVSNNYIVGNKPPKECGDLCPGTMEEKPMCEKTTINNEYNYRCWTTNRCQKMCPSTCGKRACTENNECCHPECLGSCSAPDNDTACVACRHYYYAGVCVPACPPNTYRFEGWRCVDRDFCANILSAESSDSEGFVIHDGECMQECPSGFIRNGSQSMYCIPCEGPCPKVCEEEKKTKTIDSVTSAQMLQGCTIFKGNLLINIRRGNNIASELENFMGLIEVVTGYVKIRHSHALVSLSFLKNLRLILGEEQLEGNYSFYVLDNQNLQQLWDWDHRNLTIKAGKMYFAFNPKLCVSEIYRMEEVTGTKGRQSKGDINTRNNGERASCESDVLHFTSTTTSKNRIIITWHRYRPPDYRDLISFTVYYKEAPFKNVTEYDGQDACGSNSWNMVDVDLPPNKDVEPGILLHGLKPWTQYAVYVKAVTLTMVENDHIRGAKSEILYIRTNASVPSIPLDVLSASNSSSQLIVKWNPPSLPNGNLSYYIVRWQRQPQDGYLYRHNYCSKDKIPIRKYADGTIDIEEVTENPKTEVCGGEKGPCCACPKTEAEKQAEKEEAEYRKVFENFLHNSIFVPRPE
Sequence (P08069 741-1367 limits assumed): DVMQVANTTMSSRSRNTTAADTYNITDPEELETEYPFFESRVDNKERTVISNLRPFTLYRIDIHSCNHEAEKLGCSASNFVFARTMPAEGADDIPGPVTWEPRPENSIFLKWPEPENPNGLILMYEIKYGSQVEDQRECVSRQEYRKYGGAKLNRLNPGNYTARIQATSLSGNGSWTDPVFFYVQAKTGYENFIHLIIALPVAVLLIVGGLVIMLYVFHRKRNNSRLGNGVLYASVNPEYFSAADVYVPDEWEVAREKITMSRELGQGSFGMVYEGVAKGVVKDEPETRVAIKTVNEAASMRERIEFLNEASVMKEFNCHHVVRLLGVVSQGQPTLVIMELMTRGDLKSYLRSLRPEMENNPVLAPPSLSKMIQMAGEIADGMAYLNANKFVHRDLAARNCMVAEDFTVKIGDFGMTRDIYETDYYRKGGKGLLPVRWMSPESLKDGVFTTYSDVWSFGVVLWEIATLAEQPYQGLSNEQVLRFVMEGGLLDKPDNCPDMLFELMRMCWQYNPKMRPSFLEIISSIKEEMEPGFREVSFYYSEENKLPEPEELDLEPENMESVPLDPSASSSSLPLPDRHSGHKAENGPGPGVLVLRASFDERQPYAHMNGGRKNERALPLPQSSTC

Row | SMILES | IC50
14 | COc1cc(N2CCC(N3CCN(C)CC3)CC2)c(C)cc1Nc1ncc(Cl)c(Nc2ccccc2P(C)(C)=O)n1 | 27 nM
15 | COc1cc(OCCCN2CCCC2)ccc1Nc1ncc(Cl)c(Nc2ccccc2P(C)(C)=O)n1 | 17.4 nM
16 | COc1cc(P(C)(C)=O)ccc1Nc1ncc(Cl)c(Nc2ccccc2P(C)(C)=O)n1 | 139 nM
17 | COc1cc(N2CCC(N3CCN(C)CC3)CC2)ccc1Nc1ncc(OC)c(Nc2ccccc2P(C)(C)=O)n1 | 117 nM
18 | COc1cc(P(C)(C)=O)ccc1Nc1ncc(Cl)c(Nc2ccccc2C(N)=O)n1 | 0.11 nM
19 | COc1cc(N2CCC(N3CCN(C)CC3)CC2)c(F)cc1Nc1ncc(Cl)c(Nc2ccccc2P(C)(C)=O)n1 | 59.5 nM
20 | COc1cc(OC2CCN(C)C2)ccc1Nc1ncc(Cl)c(Nc2ccccc2P(C)(C)=O)n1 (stereo not given) | 100 nM
21 | CCP(=O)(CC)c1ccccc1Nc1nc(Nc2ccc(N3CCC(N4CCN(C)CC4)CC3)cc2OC)ncc1Cl | 45.1 nM

Results, then the compound that gave them:

Row | IC50 | SMILES
22 | 103 nM | CCOc1cc(N2CCC(N3CCN(C)CC3)CC2)ccc1Nc1ncc(Cl)c(Nc2ccccc2P(C)(C)=O)n1
23 | 128 nM | COc1cc(N2CCC(N3CCN(C)CC3)CC2)ccc1Nc1ncc(C)c(Nc2ccccc2P(C)(C)=O)n1
24 | 43.3 nM | COc1cc(N2CCN(C3CCN(C)CC3)CC2)ccc1Nc1ncc(Cl)c(Nc2ccccc2P(C)(C)=O)n1
25 | 38.8 nM | COc1cc(N2CCC(N3CCCN(C)CC3)CC2)ccc1Nc1ncc(Cl)c(Nc2ccccc2P(C)(C)=O)n1
26 | 143 nM | COc1cc(N2CCC(N3CCN(C)CC3)CC2)ccc1Nc1ncc(F)c(Nc2ccccc2P(C)(C)=O)n1

tested on: not listed separately; test: cells; settings: Homo sapiens, U-937, 72 h
Description: Antiproliferative activity against human ALK-negative U937 cells assessed as reduction in cell viability measured after 72 hrs by CellTiter 96 aqueous one solution cell proliferation assay

Row | SMILES | IC50 | GI50
27 | COc1cc(N2CCC(N3CCN(C)CC3)CC2)c(C)cc1Nc1ncc(Cl)c(Nc2ccccc2P(C)(C)=O)n1 | – | 1280 nM
28 | COc1cc(OCCCN2CCCC2)ccc1Nc1ncc(Cl)c(Nc2ccccc2P(C)(C)=O)n1 | 2310 nM | –
29 | COc1cc(P(C)(C)=O)ccc1Nc1ncc(Cl)c(Nc2ccccc2P(C)(C)=O)n1 | 13200 nM | –
30 | COc1cc(N2CCC(N3CCN(C)CC3)CC2)ccc1Nc1ncc(OC)c(Nc2ccccc2P(C)(C)=O)n1 | 13900 nM | –
31 | COc1cc(P(C)(C)=O)ccc1Nc1ncc(Cl)c(Nc2ccccc2C(N)=O)n1 | 2370 nM | –
32 | COc1cc(N2CCC(N3CCN(C)CC3)CC2)c(F)cc1Nc1ncc(Cl)c(Nc2ccccc2P(C)(C)=O)n1 | 1230 nM | –
33 | COc1cc(OC2CCN(C)C2)ccc1Nc1ncc(Cl)c(Nc2ccccc2P(C)(C)=O)n1 (stereo not given) | 6330 nM | –
34 | CCP(=O)(CC)c1ccccc1Nc1nc(Nc2ccc(N3CCC(N4CCN(C)CC4)CC3)cc2OC)ncc1Cl | 3460 nM | –

Continued, in another order:

Row | IC50 | SMILES | GI50
35 | 22400 nM | CCOc1cc(N2CCC(N3CCN(C)CC3)CC2)ccc1Nc1ncc(Cl)c(Nc2ccccc2P(C)(C)=O)n1 | –
36 | 5310 nM | COc1cc(N2CCC(N3CCN(C)CC3)CC2)ccc1Nc1ncc(C)c(Nc2ccccc2P(C)(C)=O)n1 | –
37 | 4920 nM | COc1cc(N2CCN(C3CCN(C)CC3)CC2)ccc1Nc1ncc(Cl)c(Nc2ccccc2P(C)(C)=O)n1 | –
38 | 3390 nM | COc1cc(N2CCC(N3CCCN(C)CC3)CC2)ccc1Nc1ncc(Cl)c(Nc2ccccc2P(C)(C)=O)n1 | –
39 | 24200 nM | COc1cc(N2CCC(N3CCN(C)CC3)CC2)ccc1Nc1ncc(F)c(Nc2ccccc2P(C)(C)=O)n1 | –

molecular target: ALK tyrosine kinase receptor (Homo sapiens, UniProt Q9UM73); test: not given; settings: not given
Sequence (Q9UM73 whole entry): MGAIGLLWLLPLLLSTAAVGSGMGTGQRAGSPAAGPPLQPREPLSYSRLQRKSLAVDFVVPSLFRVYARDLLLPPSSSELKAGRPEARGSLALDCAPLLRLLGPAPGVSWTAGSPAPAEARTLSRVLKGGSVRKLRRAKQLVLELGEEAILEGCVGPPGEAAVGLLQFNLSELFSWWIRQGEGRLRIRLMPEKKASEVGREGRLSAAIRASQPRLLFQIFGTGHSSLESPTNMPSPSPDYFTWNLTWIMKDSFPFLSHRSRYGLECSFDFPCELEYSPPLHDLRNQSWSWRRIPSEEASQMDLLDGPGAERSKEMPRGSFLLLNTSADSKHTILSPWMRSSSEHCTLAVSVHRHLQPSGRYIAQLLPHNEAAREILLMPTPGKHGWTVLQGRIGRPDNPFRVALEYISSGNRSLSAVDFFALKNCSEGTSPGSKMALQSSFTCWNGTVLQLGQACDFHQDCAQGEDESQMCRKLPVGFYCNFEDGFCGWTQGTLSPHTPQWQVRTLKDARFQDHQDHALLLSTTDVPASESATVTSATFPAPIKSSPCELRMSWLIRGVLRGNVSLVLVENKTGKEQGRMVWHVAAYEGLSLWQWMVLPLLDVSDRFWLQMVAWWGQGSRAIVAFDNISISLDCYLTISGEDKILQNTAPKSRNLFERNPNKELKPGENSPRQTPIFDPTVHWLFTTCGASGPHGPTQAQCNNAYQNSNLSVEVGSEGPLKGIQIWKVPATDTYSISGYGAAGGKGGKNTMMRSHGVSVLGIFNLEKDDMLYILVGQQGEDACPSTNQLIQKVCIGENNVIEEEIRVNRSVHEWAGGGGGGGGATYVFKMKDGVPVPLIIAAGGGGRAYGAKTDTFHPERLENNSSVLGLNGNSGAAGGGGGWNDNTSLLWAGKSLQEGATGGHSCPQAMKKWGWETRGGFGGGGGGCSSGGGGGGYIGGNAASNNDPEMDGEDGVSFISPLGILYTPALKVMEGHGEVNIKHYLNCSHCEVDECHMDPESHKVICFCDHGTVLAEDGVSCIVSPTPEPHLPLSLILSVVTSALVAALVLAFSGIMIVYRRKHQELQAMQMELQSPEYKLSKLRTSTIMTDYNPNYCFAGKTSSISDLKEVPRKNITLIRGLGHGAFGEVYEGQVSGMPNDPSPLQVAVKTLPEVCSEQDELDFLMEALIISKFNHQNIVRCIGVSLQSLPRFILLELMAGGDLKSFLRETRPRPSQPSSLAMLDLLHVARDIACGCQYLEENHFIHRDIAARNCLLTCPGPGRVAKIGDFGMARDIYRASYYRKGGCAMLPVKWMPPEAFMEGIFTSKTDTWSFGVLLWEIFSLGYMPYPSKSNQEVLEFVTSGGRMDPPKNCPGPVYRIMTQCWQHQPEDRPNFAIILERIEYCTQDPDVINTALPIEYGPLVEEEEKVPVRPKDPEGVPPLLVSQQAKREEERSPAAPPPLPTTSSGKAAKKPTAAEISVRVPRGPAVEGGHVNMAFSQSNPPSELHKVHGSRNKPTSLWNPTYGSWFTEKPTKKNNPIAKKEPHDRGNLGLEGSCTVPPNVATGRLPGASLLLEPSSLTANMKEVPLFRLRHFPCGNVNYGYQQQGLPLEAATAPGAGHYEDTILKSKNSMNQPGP

Row | SMILES | IC50
40 | COc1cc(N2CCC(N3CCN(C)CC3)CC2)c(C)cc1Nc1ncc(Cl)c(Nc2ccccc2P(C)(C)=O)n1 | 0.86 nM
41 | COc1cc(OCCCN2CCCC2)ccc1Nc1ncc(Cl)c(Nc2ccccc2P(C)(C)=O)n1 | 0.22 nM
42 | COc1cc(P(C)(C)=O)ccc1Nc1ncc(Cl)c(Nc2ccccc2P(C)(C)=O)n1 | 1.06 nM
43 | COc1cc(N2CCC(N3CCN(C)CC3)CC2)ccc1Nc1ncc(OC)c(Nc2ccccc2P(C)(C)=O)n1 | 1.19 nM
44 | COc1cc(P(C)(C)=O)ccc1Nc1ncc(Cl)c(Nc2ccccc2C(N)=O)n1 | 0.68 nM
45 | COc1cc(N2CCC(N3CCN(C)CC3)CC2)c(F)cc1Nc1ncc(Cl)c(Nc2ccccc2P(C)(C)=O)n1 | 1.03 nM
46 | COc1cc(OC2CCN(C)C2)ccc1Nc1ncc(Cl)c(Nc2ccccc2P(C)(C)=O)n1 (stereo not given) | 0.33 nM
47 | CCP(=O)(CC)c1ccccc1Nc1nc(Nc2ccc(N3CCC(N4CCN(C)CC4)CC3)cc2OC)ncc1Cl | 0.12 nM

The remaining lines, values ahead:

Row | IC50 | SMILES
48 | 0.75 nM | CCOc1cc(N2CCC(N3CCN(C)CC3)CC2)ccc1Nc1ncc(Cl)c(Nc2ccccc2P(C)(C)=O)n1
49 | 0.42 nM | COc1cc(N2CCC(N3CCN(C)CC3)CC2)ccc1Nc1ncc(C)c(Nc2ccccc2P(C)(C)=O)n1
50 | 0.28 nM | COc1cc(N2CCN(C3CCN(C)CC3)CC2)ccc1Nc1ncc(Cl)c(Nc2ccccc2P(C)(C)=O)n1
51 | 0.49 nM | COc1cc(N2CCC(N3CCCN(C)CC3)CC2)ccc1Nc1ncc(Cl)c(Nc2ccccc2P(C)(C)=O)n1
52 | 0.39 nM | COc1cc(N2CCC(N3CCN(C)CC3)CC2)ccc1Nc1ncc(F)c(Nc2ccccc2P(C)(C)=O)n1

molecular target: Insulin receptor (Homo sapiens, UniProt P06213); test: not given; settings: not given
Sequence (P06213 28-758 limits assumed): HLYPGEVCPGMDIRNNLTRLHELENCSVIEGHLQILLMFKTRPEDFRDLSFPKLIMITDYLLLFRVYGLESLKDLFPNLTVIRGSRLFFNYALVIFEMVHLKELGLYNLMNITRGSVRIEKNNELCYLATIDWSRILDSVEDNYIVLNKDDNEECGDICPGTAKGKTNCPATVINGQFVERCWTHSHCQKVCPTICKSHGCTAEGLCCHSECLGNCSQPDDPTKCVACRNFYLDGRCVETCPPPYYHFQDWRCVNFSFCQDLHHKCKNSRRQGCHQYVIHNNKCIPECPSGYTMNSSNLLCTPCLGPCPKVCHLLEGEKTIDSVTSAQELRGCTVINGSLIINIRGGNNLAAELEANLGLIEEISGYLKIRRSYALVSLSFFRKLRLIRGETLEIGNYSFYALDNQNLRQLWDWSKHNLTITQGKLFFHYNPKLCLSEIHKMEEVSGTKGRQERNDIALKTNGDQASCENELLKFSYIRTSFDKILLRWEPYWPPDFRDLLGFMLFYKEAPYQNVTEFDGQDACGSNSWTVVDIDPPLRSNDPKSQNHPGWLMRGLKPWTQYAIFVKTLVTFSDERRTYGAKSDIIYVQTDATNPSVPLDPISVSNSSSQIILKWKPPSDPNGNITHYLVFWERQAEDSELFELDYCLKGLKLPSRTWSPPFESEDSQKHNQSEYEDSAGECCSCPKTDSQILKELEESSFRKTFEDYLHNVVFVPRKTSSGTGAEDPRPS
Sequence (P06213 763-1382 limits assumed): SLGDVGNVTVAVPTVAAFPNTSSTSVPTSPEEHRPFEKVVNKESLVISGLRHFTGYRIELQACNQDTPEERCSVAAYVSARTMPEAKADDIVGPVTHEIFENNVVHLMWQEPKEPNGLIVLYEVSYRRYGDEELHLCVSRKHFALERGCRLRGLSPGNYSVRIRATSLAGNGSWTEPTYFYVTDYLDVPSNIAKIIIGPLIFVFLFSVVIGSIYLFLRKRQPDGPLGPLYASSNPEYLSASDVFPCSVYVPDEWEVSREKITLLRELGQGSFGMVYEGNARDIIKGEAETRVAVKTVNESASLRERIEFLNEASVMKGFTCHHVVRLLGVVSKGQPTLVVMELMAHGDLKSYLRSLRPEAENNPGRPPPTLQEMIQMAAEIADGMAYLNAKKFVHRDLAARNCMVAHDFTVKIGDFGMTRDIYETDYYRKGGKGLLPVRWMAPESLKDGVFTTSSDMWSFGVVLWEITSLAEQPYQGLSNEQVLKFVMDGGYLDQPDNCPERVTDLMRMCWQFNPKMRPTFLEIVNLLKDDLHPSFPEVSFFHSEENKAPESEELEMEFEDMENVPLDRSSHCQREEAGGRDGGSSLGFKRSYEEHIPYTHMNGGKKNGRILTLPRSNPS

Row | SMILES | IC50
53 | COc1cc(N2CCC(N3CCN(C)CC3)CC2)c(C)cc1Nc1ncc(Cl)c(Nc2ccccc2P(C)(C)=O)n1 | 171 nM
54 | COc1cc(OCCCN2CCCC2)ccc1Nc1ncc(Cl)c(Nc2ccccc2P(C)(C)=O)n1 | 284 nM
55 | COc1cc(P(C)(C)=O)ccc1Nc1ncc(Cl)c(Nc2ccccc2P(C)(C)=O)n1 | 726 nM
56 | COc1cc(N2CCC(N3CCN(C)CC3)CC2)ccc1Nc1ncc(OC)c(Nc2ccccc2P(C)(C)=O)n1 | 1680 nM
57 | COc1cc(P(C)(C)=O)ccc1Nc1ncc(Cl)c(Nc2ccccc2C(N)=O)n1 | 14.1 nM
58 | COc1cc(N2CCC(N3CCN(C)CC3)CC2)c(F)cc1Nc1ncc(Cl)c(Nc2ccccc2P(C)(C)=O)n1 | 1180 nM
59 | COc1cc(OC2CCN(C)C2)ccc1Nc1ncc(Cl)c(Nc2ccccc2P(C)(C)=O)n1 (stereo not given) | 397 nM
60 | CCP(=O)(CC)c1ccccc1Nc1nc(Nc2ccc(N3CCC(N4CCN(C)CC4)CC3)cc2OC)ncc1Cl | 314 nM

Second part, the compound after the results:

Row | IC50 | SMILES
61 | 253 nM | CCOc1cc(N2CCC(N3CCN(C)CC3)CC2)ccc1Nc1ncc(Cl)c(Nc2ccccc2P(C)(C)=O)n1
62 | 483 nM | COc1cc(N2CCC(N3CCN(C)CC3)CC2)ccc1Nc1ncc(C)c(Nc2ccccc2P(C)(C)=O)n1
63 | 285 nM | COc1cc(N2CCN(C3CCN(C)CC3)CC2)ccc1Nc1ncc(Cl)c(Nc2ccccc2P(C)(C)=O)n1
64 | 162 nM | COc1cc(N2CCC(N3CCCN(C)CC3)CC2)ccc1Nc1ncc(Cl)c(Nc2ccccc2P(C)(C)=O)n1
65 | 1680 nM | COc1cc(N2CCC(N3CCN(C)CC3)CC2)ccc1Nc1ncc(F)c(Nc2ccccc2P(C)(C)=O)n1
